Results as given in patent EP2752414A1, “Crystalline form of apixaban” (Sandoz AG, priority 2013, dated 2014).
Values after ≈ are worked out from the molar mass of the structure shown.

Columns and labels:
[1] = Equilibrium solubility, shake flask method (European Pharmacopeia); type: physicochemical; settings: for Equilibrium solubility / solubility thermodynamic at 24 h: shaking at 400 rpm for 24 hours; for solubility thermodynamic at 24 h: aqueous buffer, 37 °C, thermodynamic from solid
Method: As used herein, the term "equilibrium solubility" refers to the maximum solubility of apixaban in various aqueous media of buffers of pH 1.2, 4.5 and 6.8 at 37 °C after 24 hours. The shaking is carried out at 400 rpm.
(§1) Equilibrium solubility of crystalline polymorphic Form A of apixaban and references apixaban Form N-1 was performed in various aqueous media of buffers of pH 1.2, 4.5 and 6.8 at 37°C. The solubility was measured using "shake flask" method described in European Pharmacopeia. The shaking was carried out at 400 RMP for 24 hours. Table 2: Equilibrium solubility of crystalline polymorphic Form A of apixaban and reference apixaban Form N-1 in various aqueous media of buffers.
as §1, with “rmp” for “RMP”

[2] = Physical stability of the crystalline form on storage at room atmosphere conditions; type: physicochemical; settings: after 8 months stored at room atmosphere conditions
Source text: For a pharmaceutical use a solubility of the form which active pharmaceutical ingredient forms is a criterion of exceptional importance under certain circumstances depending on the choice of formulation or the choice of manufacturing process. For drugs which are to be taken orally it is, in general, very important that active pharmaceutical ingredients are sufficiently soluble and bioavailable. Apixaban is such a drug, i.e. characterized by a low solubility in aqueous media. Unexpectedly, improved solubility of crystalline polymorph Form A of apixaban contributes to sufficient bioavailability of apixaban containing drugs. At the same time, a high physical stability of crystalline Form A is preserved.

| Equilibrium solubility ([1]; aqueous buffer pH 1.2, 37°C) | Equilibrium solubility ([1]; aqueous buffer pH 4.5, 37°C) | Equilibrium solubility ([1]; aqueous buffer pH 6.8, 37°C) | comparison of equilibrium solubility with reference polymorph Form N-1 ([1]; aqueous buffers pH 1.2, 4.5 and 6.8, 37°C (Table 2)) | solubility thermodynamic at 24 h ([1]; pH 1.2, simulated gastric fluid, aqueous buffer pH 1.2, 37°C) | solubility thermodynamic at 24 h ([1]; pH 4.5, aqueous buffer, aqueous buffer pH 4.5, 37°C) | SMILES | physical stability (crystalline structure) [2] |
| --- | --- | --- | --- | --- | --- | --- | --- |
| 58 µg/mL | 74 µg/mL | 72 µg/mL | higher solubility |  |  | COc1ccc(-n2nc(C(N)=O)c3c2C(=O)N(c2ccc(N4CCCCC4=O)cc2)CC3)cc1 [Form A, 1-(4-methoxyphenyl)-7-oxo-6-(4-(2-oxopiperidin-1-yl)phenyl)-4,5,6,7-tetrahydro-1H-pyrazolo[3,4-c]pyridine-3-carboxamide] | the crystalline structure remains unchanged |
|  |  | 30 µg/mL |  | 44 µg/mL (≈ 95.8 µM) | 53 µg/mL (≈ 115 µM) | COc1ccc(-n2nc(C(N)=O)c3c2C(=O)N(c2ccc(N4CCCCC4=O)cc2)CC3)cc1 [Form N-1, 1-(4-methoxyphenyl)-7-oxo-6-(4-(2-oxopiperidin-1-yl)phenyl)-4,5,6,7-tetrahydro-1H-pyrazolo[3,4-c]pyridine-3-carboxamide, reference compound] |  |
